Where a name gives a salt, the structure may show the parent alone.
How the values were obtained:
[1] = tested on: stress ulcer in rats; experiment: Action to stress ulcer in rats (restraint and water immersion); assay type: in vivo, Male Wister rats; conditions: Rattus norvegicus, po, 30 minutes before restraint, inhibition ratio, read-out: Ulcer Index (%)
Method: (Action to stress ulcer in rats)
Male Wister rats weighing about 180 g (age: 6 weeks) were used for this experiment.
Ten rats in each group were deprived of food for 24 hours before the experiment. They were immobilized in a restraint cage and immersed for 7 hours to the height of the xiphoid in a water bath kept at 23±1°C. After inflation with 10 ml of 1% formalin, the isolated stomach was opened along the greater curvature. The ulcer index (UI) was determined as the sum of the length (mm) of each erosion per rat. Each of the compounds to be tested was suspended in 5% gum arabic solution and given orally 30 minutes before restraint. Control animals received the same solution without any drug or the test compound.
(§1) Inhibition ratio is expressed as follows. [formula]

[2] = tested on: gastric necrosis in rats; experiment: Action to gastric necrosis in rats (absolute ethanol); assay type: in vivo, Male Sprague-Dewley rats; conditions: po, 1 hour before absolute ethanol, inhibition ratio
Method: (Action to gastric necrosis in rats)
Male Sprague-Dewley rats weighing about 250 g were used for this experiment.
Ten rats in each group were deprived of food for 24 hours before the experiment. Each of the compounds to be tested was suspended in 5% gum arabic solution and given orally to the test animal. After 1 hours from the administration of the compound. 1 ml of absolute ethanol was administered orally and the animals were killed 1 hour later from the ethanol administration. After inflation with 10 ml of 1% formalin, the isolated stomach was opened along the greater curvature. The ulcer index (UI) was determined as the sum of the length (mm) of each erosion per rat. […]. Control animals received the same solution without any drug or the test compound.
as §1

With `CC1(C)[C@@H](OCCC(=O)O)CC[C@]2(C)[C@H]3CC=C4[C@@H]5C[C@@](C)(C(=O)O)CC[C@]5(C)CC[C@@]4(C)[C@]3(C)CC[C@@H]12` [Compound 9, 3β-(2-Carboxyethoxy)-18β-olean-12-en-30-oic acid disodium salt] the inhibition in vivo at 25 mg/kg [1] was -0.7%, the inhibition in vivo at 50 mg/kg [1] was 11.8% and the inhibition in vivo at 100 mg/kg [1] was 26.1%.

`CC(C)=CCCC(C)=CCCC(C)=CCCC(C)=CCCC(C)=CCCC(C)=CCCC(C)=CCCC(C)=CCCC(C)=CCCC(C)=CCSCCNC(=O)C1(C)CCC2(C)CCC3(C)C(=CCC4C5(C)CCC(OC(=O)C=CC(=O)O)C(C)(C)C5CCC43C)C2C1` (stereo not shown) [Compound 4e] gave an inhibition in vivo at 12.5 mg/kg [1] of 50%, an inhibition in vivo at 25 mg/kg [1] of 44.7% and an inhibition in vivo at 50 mg/kg [1] of 53.5%. For the same compound, the inhibition in vivo at 100 mg/kg [1] was 60.5%, the “Ulcer Index (%)” value ([2]; 25 mg/kg) was 21.3% and the “Ulcer Index (%)” value ([2]; 50 mg/kg) was -9.5%. For the same compound, the “Ulcer Index (%)” value ([2]; 100 mg/kg) was -34.7%.

`COc1ccccc1N1CCN(C(=O)[C@@]2(C)CC[C@]3(C)CC[C@]4(C)C(=CC[C@@H]5[C@@]6(C)CC[C@H](O)C(C)(C)[C@@H]6CC[C@]54C)[C@@H]3C2)CC1` [Compound 2i, 1-(3β-hydroxy-18β-olean-12-en-30-oyl)-4-(o-methoxyphenyl)piperazine] showed an inhibition in vivo at 25 mg/kg [1] of -18%, an inhibition in vivo at 50 mg/kg [1] of 4.9% and an inhibition in vivo at 100 mg/kg [1] of 46.4%.

`CC(C)=CCCC(C)=CCCC(C)=CCCC(C)=CCCC(C)=CCCC(C)=CCCC(C)=CCCC(C)=CCCC(C)=CCCC(C)=CCSCCNC(=O)C1(C)CCC2(C)CCC3(C)C(=CC(=O)C4C5(C)CCC(OC(=O)C=CC(=O)O)C(C)(C)C5CCC43C)C2C1` (stereo not shown) [Compound 4k] gave an inhibition in vivo at 12.5 mg/kg [1] of 48.5%, an inhibition in vivo at 25 mg/kg [1] of 45.5% and an inhibition in vivo at 50 mg/kg [1] of 43.6%. For the same compound, the inhibition in vivo at 100 mg/kg [1] was 56.4%, the “Ulcer Index (%)” value ([2]; 25 mg/kg) was 58.7% and the “Ulcer Index (%)” value ([2]; 50 mg/kg) was 10.9%. The “Ulcer Index (%)” value ([2]; 100 mg/kg) was 14.3%.

With `CC(C)=CCCC(C)=CCCC(C)=CCCC(C)=CCCC(C)=CCCC(C)=CCCC(C)=CCCC(C)=CCCC(C)=CCSCCNC(=O)C1(C)CCC2(C)CCC3(C)C(=CCC4C5(C)CCC(OC(=O)C=CC(=O)O)C(C)(C)C5CCC43C)C2C1` (stereo not shown) [Compound 4d] the inhibition in vivo at 12.5 mg/kg [1] was 33.9%, the inhibition in vivo at 25 mg/kg [1] was 55.4% and the inhibition in vivo at 50 mg/kg [1] was 42.1%. The inhibition in vivo at 100 mg/kg [1] was 56.2%, the “Ulcer Index (%)” value ([2]; 25 mg/kg) was 31.7% and the “Ulcer Index (%)” value ([2]; 50 mg/kg) was 20.6%. For the same compound, the “Ulcer Index (%)” value ([2]; 100 mg/kg) was 39.2%.

Compound `COc1ccccc1N1CCN(C(=O)[C@@]2(C)CC[C@]3(C)CC[C@]4(C)C(=CC(=O)[C@@H]5[C@@]6(C)CC[C@H](OC(=O)/C=C\C(=O)O)C(C)(C)[C@@H]6CC[C@]54C)[C@@H]3C2)CC1` [Compound 4l] has an inhibition in vivo at 12.5 mg/kg [1] of 6.3%, an inhibition in vivo at 25 mg/kg [1] of 25.9% and an inhibition in vivo at 50 mg/kg [1] of 31.7%.

In the case of `CC(C)=CCCC(C)=CCCC(C)=CCSCCNC(=O)[C@@]1(C)CC[C@]2(C)CC[C@]3(C)C(=CC[C@@H]4[C@@]5(C)CC[C@H](OC(=O)/C=C\C(=O)O)C(C)(C)[C@@H]5CC[C@]43C)[C@@H]2C1` [Compound 4b], the inhibition in vivo at 25 mg/kg [1] is reported as 51%, the inhibition in vivo at 50 mg/kg [1] is reported as 62.6% and the inhibition in vivo at 100 mg/kg [1] is reported as 60.5%.

`CC(=CCSCCNC(=O)[C@@]1(C)CC[C@]2(C)CC[C@]3(C)C(=CC[C@@H]4[C@@]5(C)CC[C@H](OC(=O)/C=C\C(=O)O)C(C)(C)[C@@H]5CC[C@]43C)[C@@H]2C1)CCCC(C)CCCC(C)CCCC(C)C` (stereo partly shown) [Compound 4f] gave an inhibition in vivo at 25 mg/kg [1] of 16.5%, an inhibition in vivo at 50 mg/kg [1] of 4.3% and an inhibition in vivo at 100 mg/kg [1] of 34.5%.

Work on `CC(C)=CCCC(C)=CCSCCNC(=O)[C@@]1(C)CC[C@]2(C)CC[C@]3(C)C(=CC[C@@H]4[C@@]5(C)CC[C@H](OC(=O)/C=C\C(=O)O)C(C)(C)[C@@H]5CC[C@]43C)[C@@H]2C1` [Compound 4a, N-[2-(3,7-Dimethyl-2,6-octadien-1-ylthio)ethyl]-3β-(3-carboxy-cis-propenoyloxy)-18β-olean-12-en-30-amide sodium salt] yielded an inhibition in vivo at 25 mg/kg [1] of 21.1%, an inhibition in vivo at 50 mg/kg [1] of 58.2% and an inhibition in vivo at 100 mg/kg [1] of 73.1%.

Compound `CC1(C)[C@@H](OCC(=O)O)CC[C@]2(C)[C@H]3CC=C4[C@@H]5C[C@@](C)(C(=O)O)CC[C@]5(C)CC[C@@]4(C)[C@]3(C)CC[C@@H]12` [Compound 6, 3β-(carboxymethoxy)-18β-olean-12-en-30-oic acid disodium salt] has an inhibition in vivo at 25 mg/kg [1] of 7.2%, an inhibition in vivo at 50 mg/kg [1] of 42.5% and an inhibition in vivo at 100 mg/kg [1] of 59.8%.

Work on `CC(C)=CCCC(C)=CCCC(C)=CCOC(=O)[C@@]1(C)CC[C@]2(C)CC[C@]3(C)C(=CC[C@@H]4[C@@]5(C)CC[C@H](OC(=O)/C=C\C(=O)O)C(C)(C)[C@@H]5CC[C@]43C)[C@@H]2C1` [Compound 4h] yielded an inhibition in vivo at 12.5 mg/kg [1] of 8%, an inhibition in vivo at 25 mg/kg [1] of 6.1% and an inhibition in vivo at 50 mg/kg [1] of 35.7%.

Compound `CC(C)=CCCC(C)=CCCC(C)=CCN1CCN(C(=O)[C@@]2(C)CC[C@]3(C)CC[C@]4(C)C(=CC[C@@H]5[C@@]6(C)CC[C@H](OC(=O)/C=C\C(=O)O)C(C)(C)[C@@H]6CC[C@]54C)[C@@H]3C2)CC1` [Compound 4g] has an inhibition in vivo at 12.5 mg/kg [1] of 11.7%, an inhibition in vivo at 25 mg/kg [1] of 22.5% and an inhibition in vivo at 50 mg/kg [1] of 21.6%.

Compound `CC(C)=CCCC(C)=CCCC(C)=CCCC(C)=CCSCCNC(=O)[C@@]1(C)CC[C@]2(C)CC[C@]3(C)C(=CC[C@@H]4[C@@]5(C)CC[C@H](OC(=O)/C=C\C(=O)O)C(C)(C)[C@@H]5CC[C@]43C)[C@@H]2C1` [Compound 4c] has an inhibition in vivo at 12.5 mg/kg [1] of 33.3%, an inhibition in vivo at 25 mg/kg [1] of 30.5% and an inhibition in vivo at 50 mg/kg [1] of 46.8%. For the same compound, the inhibition in vivo at 100 mg/kg [1] was 61%, the “Ulcer Index (%)” value ([2]; 25 mg/kg) was 43.3% and the “Ulcer Index (%)” value ([2]; 50 mg/kg) was 66.1%. The “Ulcer Index (%)” value ([2]; 100 mg/kg) was 48.9%.

`COc1ccccc1N1CCN(C(=O)[C@@]2(C)CC[C@]3(C)CC[C@]4(C)C(=CC[C@@H]5[C@@]6(C)CC[C@H](OC(=O)/C=C\C(=O)O)C(C)(C)[C@@H]6CC[C@]54C)[C@@H]3C2)CC1` [Compound 4i] gave an inhibition in vivo at 25 mg/kg [1] of 24.4%, an inhibition in vivo at 50 mg/kg [1] of 61.4% and an inhibition in vivo at 100 mg/kg [1] of 76.5%.

In the case of `COc1ccccc1N1CCN(C(=O)[C@@]2(C)CC[C@]3(C)CC[C@]4(C)C(=CC[C@@H]5[C@@]6(C)CC[C@H](OC(=O)CCC(=O)O)C(C)(C)[C@@H]6CC[C@]54C)[C@@H]3C2)CC1` [Compound 4m, sodium salt], the inhibition in vivo at 25 mg/kg [1] is reported as 9.5%, the inhibition in vivo at 50 mg/kg [1] is reported as 26.5% and the inhibition in vivo at 100 mg/kg [1] is reported as 23.2%.

From US4871740A, “Glycyrrhetic acid derivatives and use thereof” (Sanwa Kagaku Kenkyusho Co., Ltd., priority 1986, dated 1989)
